Experimental data reported in ChEMBL document CHEMBL3739319, “Identification of a novel class of autotaxin inhibitors through cross-screening” (Medchemcomm, 2015).
In brackets after ≈: the same amount, converted by molar mass. Activity calls are given as the source filed them. The calls are words filed in the database; no cut-off is given here.

How the values were obtained:
[1] = Kinetic solubility of compound in phosphate buffer at pH 7.4 for 1 hr; assay type: physicochemical; settings: read-out: Kinetic_solubility
[2] = Permeability of compound across artificial membrane after 3 hrs by LC-MS analysis; assay type: ADME; settings: PAMPA; read-out: permeability
[3] = Lipophilicity, log D of compound at pH 7.4 by RP-HPLC analysis; assay type: physicochemical; settings: buffer
Autotaxin [4] = molecular target: T1, Autotaxin (Homo sapiens, UniProt Q13822); assay: Inhibition of ATX (unknown origin) using bis-(p-nitrophenyl)phosphate as substrate
PC-3 = assay: Inhibition of LPA-induced cell proliferation of human PC3 cells at 10 uM after 18 hrs by [3H]-thymidine incorporation assay; assay type: functional, cell-based
A2780 = assay: Cytotoxicity against human A2780 cells at 30 uM after 42 hrs by alamar blue assay; assay type: cell-based; settings: a2780, 42 h
Autotaxin [5] = molecular target: T1, Autotaxin; assay: Inhibition of ATX (unknown origin) using bis-(p-nitrophenyl)phosphate as substrate at 30 uM
[6] = molecular target: Lysophosphatidic acid receptor 1 (Homo sapiens) (UniProt Q92633); assay: Antagonist activity at LPA1 receptor (unknown origin) expressed in CHO-K1 cells assessed as LPA-induced receptor activity measured as remaining receptor activity at 10 uM compound incubated for 1 hr followed by addition of LPA for 3 hrs by luminometry; assay type: cell-based
Lysophosphatidic acid receptor 1 (Homo sapiens), sequence (Q92633 whole entry): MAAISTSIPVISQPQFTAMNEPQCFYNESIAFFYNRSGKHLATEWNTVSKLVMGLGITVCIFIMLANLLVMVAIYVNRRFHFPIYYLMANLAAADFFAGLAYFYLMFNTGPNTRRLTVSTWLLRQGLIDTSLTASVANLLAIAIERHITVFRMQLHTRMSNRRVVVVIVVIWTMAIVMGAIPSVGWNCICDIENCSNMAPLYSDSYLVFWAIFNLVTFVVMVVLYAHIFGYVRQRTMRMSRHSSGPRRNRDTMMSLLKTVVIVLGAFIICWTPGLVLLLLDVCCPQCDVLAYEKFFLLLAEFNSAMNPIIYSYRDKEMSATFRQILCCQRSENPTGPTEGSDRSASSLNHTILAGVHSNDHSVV

solubility kinetic at 1 h [1]	Papp at 3 h [2]	logD [3]	Ki (Autotaxin [4])	inhibition (Autotaxin [5])	Activity [6]	Structure (SMILES)	inhibition (PC-3)	Activity (A2780)
195 µg/mL (≈ 457 µM)	1.6 ×10⁻⁶ cm/s	1.5	> 30 µM			O=C1CN(Cc2ccc(-c3ccc(C4(C(=O)O)CC4)cc3)cc2)C(=O)N1c1ccccc1		
186 µg/mL (≈ 456 µM)	2.2 ×10⁻⁶ cm/s	1.12	1.8 µM			O=C(O)Cc1ccc(-c2ccc(CN3CC(=O)N(C4CCCCC4)C3=O)cc2)cc1		
287 µg/mL (≈ 794 µM)	14 ×10⁻⁶ cm/s	3.06	4 µM			O=C(O)Cc1ccccc1-c1cccc(NC(=O)OCc2ccccc2)c1		
93 µg/mL (≈ 228 µM)	< 3 ×10⁻⁶ cm/s	-0.35	3.9 µM			O=C(O)Cc1ccc(-c2ccc(CN3CC(=O)N(C4CCCCC4)C3=O)nc2)cc1		
5 µg/mL (≈ 16.5 µM)	45 ×10⁻⁶ cm/s	7.52	> 30 µM			O=C(Nc1cccc(-c2ccccc2)c1)OCc1ccccc1		
110 µg/mL (≈ 322 µM)	51 ×10⁻⁶ cm/s	7.43	> 30 µM			O=C(Cc1ccc(-c2ccc3cc[nH]c3c2)cc1)OCc1ccccc1		
198 µg/mL (≈ 548 µM)	7.3 ×10⁻⁶ cm/s	3.19	4.5 µM			O=C(O)Cc1ccc(-c2cccc(NC(=O)OCc3ccccc3)c2)cc1	Active	Non-toxic
				< 20%	11%	Cc1noc(-c2ccc(-c3ccc(CC(=O)O)cc3)cc2)c1NC(=O)O[C@H](C)c1ccccc1		
				< 20%	16%	Cc1noc(-c2ccc(CSCCC(=O)O)cc2)c1NC(=O)OC(C)c1ccccc1Cl (stereo unspecified)		
7.5 µg/mL (≈ 21.9 µM)	54 ×10⁻⁶ cm/s	6.24	1.3 µM			O=C1CN(Cc2ccc(-c3ccccc3)cc2)C(=O)N1c1ccccc1	Active	Non-toxic
			< 5 µM			CC(C)N1C(=O)CN(Cc2ccc(Br)cn2)C1=O		
108 µg/mL (≈ 294 µM)	< 1 ×10⁻⁶ cm/s	-1.38	4 µM			CC(C)N1C(=O)CN(Cc2ccc(-c3ccc(CC(=O)O)cc3)cn2)C1=O		
212 µg/mL (≈ 476 µM)	2.3 ×10⁻⁶ cm/s	3.13	> 30 µM			O=C(O)Cc1ccc(-c2ccc(N(C(=O)OCc3ccccc3)C3CCOCC3)cc2)cc1		
			< 5 µM			Brc1ccc(NC2CCOCC2)cc1		
			< 5 µM			COC(=O)CNCc1ccc(Br)cc1		
221 µg/mL (≈ 612 µM)	6.4 ×10⁻⁶ cm/s	3.1	3.5 µM			O=C(O)Cc1cccc(-c2cccc(NC(=O)OCc3ccccc3)c2)c1		
70 µg/mL (≈ 205 µM)	44.5 ×10⁻⁶ cm/s	7.25	1.1 µM			O=C(Cc1ccc(-c2ccc3[nH]ccc3c2)cc1)OCc1ccccc1		
			< 5 µM			COC(=O)CNCc1ccc(Br)cn1		
			< 5 µM			O=C1CN(Cc2ccc(Br)cc2)C(=O)N1C1CCCCC1		
174 µg/mL (≈ 436 µM)	0.3 ×10⁻⁶ cm/s	2.18	3.6 µM			O=C(O)Cc1ccc(-c2ccc(CN3CC(=O)N(c4ccccc4)C3=O)cc2)cc1		
190 µg/mL (≈ 519 µM)	0.3 ×10⁻⁶ cm/s	1.1	1.2 µM			CC(C)N1C(=O)CN(Cc2ccc(-c3ccc(CC(=O)O)cc3)cc2)C1=O		
			< 5 µM			O=C1CN(Cc2ccc(Br)cc2)C(=O)N1c1ccccc1		
189 µg/mL (≈ 426 µM)	15 ×10⁻⁶ cm/s	4.92	2 µM			O=C(O)Cc1ccc(-c2ccc(N(C(=O)OCc3ccccc3)C3CCCCC3)cc2)cc1	Active	Non-toxic
